Laboratory results published in ChEMBL document CHEMBL5465560, “Selectivity Literature for EUbOPEN Chemogenomic Library” (2024).
Values belong to the compound of their own block, whether it stands above or below them.

Experiments:
[1] = molecular target: T1, Tyrosine-protein kinase TXK (Homo sapiens) (UniProt P42681); settings: at 10 µM
T1 sequence (whole entry): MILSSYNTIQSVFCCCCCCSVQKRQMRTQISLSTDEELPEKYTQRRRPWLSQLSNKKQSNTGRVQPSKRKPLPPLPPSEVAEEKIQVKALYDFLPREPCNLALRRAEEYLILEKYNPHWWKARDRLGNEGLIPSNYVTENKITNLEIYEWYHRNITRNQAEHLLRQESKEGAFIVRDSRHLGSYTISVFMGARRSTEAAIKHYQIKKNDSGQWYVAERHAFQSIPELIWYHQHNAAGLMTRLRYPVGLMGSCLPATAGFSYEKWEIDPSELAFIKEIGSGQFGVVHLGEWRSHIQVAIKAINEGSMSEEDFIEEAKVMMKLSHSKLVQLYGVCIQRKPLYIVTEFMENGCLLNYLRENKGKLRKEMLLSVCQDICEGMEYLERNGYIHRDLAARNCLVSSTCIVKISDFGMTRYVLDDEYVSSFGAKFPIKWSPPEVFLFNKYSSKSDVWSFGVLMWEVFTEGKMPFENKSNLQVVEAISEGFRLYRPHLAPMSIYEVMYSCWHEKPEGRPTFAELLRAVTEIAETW

[2] = molecular target: Myosin light chain kinase 2, skeletal/cardiac muscle (Homo sapiens) (UniProt Q9H1R3); assay: Selectivity interaction (KinomeScan (DiscoverX)) EUB0001049a MYLK2; settings: at 1 µM
[3] = molecular target: DNA (cytosine-5)-methyltransferase 3B (Homo sapiens) (UniProt Q9UBC3); assay: Selectivity interaction (Methyltransferase screen (radiometric assays, panel of 8 PRMTs, 21 protein lysine methyltransferases, 3 DNA methyltransferases, and one RNA methyltransferase)) EUB0000271b DNMT3B
[4] = molecular target: Proto-oncogene tyrosine-protein kinase Src (Homo sapiens, UniProt P12931); assay: Selectivity interaction (Kinase panel (enzymatic assay)) EUB0000595a SRC
[5] = molecular target: Phosphatidylinositol 4-phosphate 5-kinase type-1 gamma (Homo sapiens) (UniProt O60331); assay: Selectivity interaction (KinomeScan (DiscoverX)) EUB0000595a PIP5K1C; settings: at 10 µM
[6] = molecular target: Cyclin-dependent kinase 5/CDK5 activator 1 (Homo sapiens) (UniProt Q00535+Q15078); assay: Selectivity interaction (ProQinase) EUB0000171b CDK5; type: protein-complex assay; settings: at 5 µM
[7] = molecular target: Myosin light chain kinase, smooth muscle (Homo sapiens, UniProt Q15746); assay: Selectivity interaction (Kinase panel (Invitrogen, enzymatic assay)) EUB0000162b MYLK
[8] = molecular target: T2, Serine/threonine-protein kinase greatwall (Homo sapiens) (UniProt Q96GX5); assay: Selectivity interaction (Kinase panel (KiNativ target engagement assay in Jurkat cells)) EUB0001635a MASTL; type: cell-based; settings: at 1 µM
T2 sequence (whole entry): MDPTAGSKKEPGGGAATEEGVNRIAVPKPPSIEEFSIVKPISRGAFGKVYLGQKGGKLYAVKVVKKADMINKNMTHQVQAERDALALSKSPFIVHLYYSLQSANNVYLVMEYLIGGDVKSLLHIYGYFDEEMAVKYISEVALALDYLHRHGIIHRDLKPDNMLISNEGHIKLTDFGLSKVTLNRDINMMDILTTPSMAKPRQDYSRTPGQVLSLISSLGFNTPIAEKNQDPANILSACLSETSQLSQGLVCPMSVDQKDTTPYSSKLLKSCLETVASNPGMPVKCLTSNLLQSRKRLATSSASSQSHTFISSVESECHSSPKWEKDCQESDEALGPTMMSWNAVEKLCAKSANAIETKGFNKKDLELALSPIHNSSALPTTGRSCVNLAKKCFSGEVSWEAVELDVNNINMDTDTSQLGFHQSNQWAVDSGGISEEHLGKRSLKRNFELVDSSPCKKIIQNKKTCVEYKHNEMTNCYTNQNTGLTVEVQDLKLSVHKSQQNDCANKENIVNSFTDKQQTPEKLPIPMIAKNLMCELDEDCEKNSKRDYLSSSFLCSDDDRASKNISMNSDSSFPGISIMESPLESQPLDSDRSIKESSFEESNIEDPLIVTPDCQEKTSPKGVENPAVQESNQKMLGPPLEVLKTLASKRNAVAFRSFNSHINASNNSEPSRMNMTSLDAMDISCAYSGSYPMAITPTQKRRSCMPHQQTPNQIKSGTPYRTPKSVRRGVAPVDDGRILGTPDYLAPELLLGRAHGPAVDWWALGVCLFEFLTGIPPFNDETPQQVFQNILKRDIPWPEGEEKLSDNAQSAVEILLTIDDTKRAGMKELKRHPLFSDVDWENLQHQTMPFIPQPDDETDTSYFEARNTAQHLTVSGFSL

[9] = molecular target: T3, Muscarinic acetylcholine receptor M1 (Homo sapiens) (UniProt P11229); assay: Selectivity interaction (Panel of kinases, GPCRs, ion channels and transporters (enzymatic assay)) EUB0000223bCl CHRM1
T3 sequence (whole entry): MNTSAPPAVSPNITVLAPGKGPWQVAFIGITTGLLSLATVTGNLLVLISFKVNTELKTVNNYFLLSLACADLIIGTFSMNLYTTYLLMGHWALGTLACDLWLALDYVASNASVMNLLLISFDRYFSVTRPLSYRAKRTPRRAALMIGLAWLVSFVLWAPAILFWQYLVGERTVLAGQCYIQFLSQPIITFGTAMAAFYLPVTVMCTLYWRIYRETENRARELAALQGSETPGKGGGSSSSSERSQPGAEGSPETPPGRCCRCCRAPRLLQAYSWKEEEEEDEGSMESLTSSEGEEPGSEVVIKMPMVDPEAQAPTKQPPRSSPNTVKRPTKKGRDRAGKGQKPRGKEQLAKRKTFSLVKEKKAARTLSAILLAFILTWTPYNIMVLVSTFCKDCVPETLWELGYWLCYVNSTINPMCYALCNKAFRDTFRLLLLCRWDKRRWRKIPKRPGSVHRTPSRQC

Chain of Phosphatidylinositol 4-phosphate 5-kinase type-1 gamma (Homo sapiens) (O60331 whole entry): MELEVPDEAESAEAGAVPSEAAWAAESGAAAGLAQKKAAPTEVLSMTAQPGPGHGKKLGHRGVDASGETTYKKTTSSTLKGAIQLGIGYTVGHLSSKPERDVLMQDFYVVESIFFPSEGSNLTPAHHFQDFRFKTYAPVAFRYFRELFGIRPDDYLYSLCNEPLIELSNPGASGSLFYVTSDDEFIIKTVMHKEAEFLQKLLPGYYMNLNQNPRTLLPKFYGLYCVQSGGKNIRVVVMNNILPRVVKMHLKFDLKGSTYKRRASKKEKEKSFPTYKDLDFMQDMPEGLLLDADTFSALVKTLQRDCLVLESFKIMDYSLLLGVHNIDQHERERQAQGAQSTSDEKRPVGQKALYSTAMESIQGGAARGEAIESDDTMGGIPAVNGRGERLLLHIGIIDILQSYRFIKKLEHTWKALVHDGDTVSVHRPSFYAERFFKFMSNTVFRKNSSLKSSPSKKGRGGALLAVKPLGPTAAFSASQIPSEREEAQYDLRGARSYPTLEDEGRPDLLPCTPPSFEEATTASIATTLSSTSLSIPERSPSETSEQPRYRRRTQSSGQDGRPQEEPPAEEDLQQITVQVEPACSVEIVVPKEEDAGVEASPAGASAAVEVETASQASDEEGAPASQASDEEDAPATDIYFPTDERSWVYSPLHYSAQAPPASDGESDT
Chain of Cyclin-dependent kinase 5/CDK5 activator 1 (Homo sapiens) (Q00535 whole entry): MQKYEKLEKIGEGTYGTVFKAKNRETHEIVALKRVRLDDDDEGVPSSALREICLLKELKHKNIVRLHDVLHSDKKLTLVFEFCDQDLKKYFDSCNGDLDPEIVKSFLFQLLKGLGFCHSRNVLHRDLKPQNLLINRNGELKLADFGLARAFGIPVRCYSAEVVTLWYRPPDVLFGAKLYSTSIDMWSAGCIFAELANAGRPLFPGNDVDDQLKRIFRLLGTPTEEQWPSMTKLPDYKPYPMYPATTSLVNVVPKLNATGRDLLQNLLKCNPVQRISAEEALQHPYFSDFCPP
Chain of Cyclin-dependent kinase 5/CDK5 activator 1 (Homo sapiens) (Q15078 99-307 partner limits assumed): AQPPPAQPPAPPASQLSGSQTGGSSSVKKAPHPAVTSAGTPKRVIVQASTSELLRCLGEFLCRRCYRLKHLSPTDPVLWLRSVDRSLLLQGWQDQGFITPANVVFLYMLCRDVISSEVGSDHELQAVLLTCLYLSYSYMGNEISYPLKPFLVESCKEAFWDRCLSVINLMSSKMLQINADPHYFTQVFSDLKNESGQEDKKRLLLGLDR
Chain of Proto-oncogene tyrosine-protein kinase Src (P12931 2-536 limits assumed): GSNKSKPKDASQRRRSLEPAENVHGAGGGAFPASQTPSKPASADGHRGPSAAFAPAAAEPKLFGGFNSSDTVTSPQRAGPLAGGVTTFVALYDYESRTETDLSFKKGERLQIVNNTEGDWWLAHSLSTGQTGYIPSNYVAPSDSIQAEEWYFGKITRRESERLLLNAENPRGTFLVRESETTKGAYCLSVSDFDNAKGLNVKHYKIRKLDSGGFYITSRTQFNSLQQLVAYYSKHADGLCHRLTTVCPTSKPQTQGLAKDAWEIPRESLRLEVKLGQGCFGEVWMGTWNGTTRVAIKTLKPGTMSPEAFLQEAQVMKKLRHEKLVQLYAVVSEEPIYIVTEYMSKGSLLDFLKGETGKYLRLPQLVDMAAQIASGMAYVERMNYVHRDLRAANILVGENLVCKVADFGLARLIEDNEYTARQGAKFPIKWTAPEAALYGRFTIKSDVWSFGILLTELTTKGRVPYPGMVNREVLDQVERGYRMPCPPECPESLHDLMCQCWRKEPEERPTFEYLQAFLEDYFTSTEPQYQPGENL
Chain of Myosin light chain kinase 2, skeletal/cardiac muscle (Homo sapiens) (Q9H1R3 whole entry): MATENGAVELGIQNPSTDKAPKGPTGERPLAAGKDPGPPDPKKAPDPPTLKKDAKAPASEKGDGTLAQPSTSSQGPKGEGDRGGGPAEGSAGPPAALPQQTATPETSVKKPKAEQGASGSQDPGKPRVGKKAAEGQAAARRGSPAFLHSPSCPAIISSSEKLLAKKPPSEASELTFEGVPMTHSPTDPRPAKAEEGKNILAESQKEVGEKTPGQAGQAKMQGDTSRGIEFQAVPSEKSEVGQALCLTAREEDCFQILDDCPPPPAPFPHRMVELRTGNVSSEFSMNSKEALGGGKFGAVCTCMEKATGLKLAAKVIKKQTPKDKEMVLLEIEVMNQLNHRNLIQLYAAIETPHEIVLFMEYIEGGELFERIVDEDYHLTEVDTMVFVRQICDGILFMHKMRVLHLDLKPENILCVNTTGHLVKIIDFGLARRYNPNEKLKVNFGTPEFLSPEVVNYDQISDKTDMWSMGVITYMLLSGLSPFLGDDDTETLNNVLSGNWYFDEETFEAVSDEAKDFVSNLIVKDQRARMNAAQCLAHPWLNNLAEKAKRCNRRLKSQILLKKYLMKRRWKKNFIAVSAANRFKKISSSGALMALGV
Chain of Myosin light chain kinase, smooth muscle (Q15746 whole entry): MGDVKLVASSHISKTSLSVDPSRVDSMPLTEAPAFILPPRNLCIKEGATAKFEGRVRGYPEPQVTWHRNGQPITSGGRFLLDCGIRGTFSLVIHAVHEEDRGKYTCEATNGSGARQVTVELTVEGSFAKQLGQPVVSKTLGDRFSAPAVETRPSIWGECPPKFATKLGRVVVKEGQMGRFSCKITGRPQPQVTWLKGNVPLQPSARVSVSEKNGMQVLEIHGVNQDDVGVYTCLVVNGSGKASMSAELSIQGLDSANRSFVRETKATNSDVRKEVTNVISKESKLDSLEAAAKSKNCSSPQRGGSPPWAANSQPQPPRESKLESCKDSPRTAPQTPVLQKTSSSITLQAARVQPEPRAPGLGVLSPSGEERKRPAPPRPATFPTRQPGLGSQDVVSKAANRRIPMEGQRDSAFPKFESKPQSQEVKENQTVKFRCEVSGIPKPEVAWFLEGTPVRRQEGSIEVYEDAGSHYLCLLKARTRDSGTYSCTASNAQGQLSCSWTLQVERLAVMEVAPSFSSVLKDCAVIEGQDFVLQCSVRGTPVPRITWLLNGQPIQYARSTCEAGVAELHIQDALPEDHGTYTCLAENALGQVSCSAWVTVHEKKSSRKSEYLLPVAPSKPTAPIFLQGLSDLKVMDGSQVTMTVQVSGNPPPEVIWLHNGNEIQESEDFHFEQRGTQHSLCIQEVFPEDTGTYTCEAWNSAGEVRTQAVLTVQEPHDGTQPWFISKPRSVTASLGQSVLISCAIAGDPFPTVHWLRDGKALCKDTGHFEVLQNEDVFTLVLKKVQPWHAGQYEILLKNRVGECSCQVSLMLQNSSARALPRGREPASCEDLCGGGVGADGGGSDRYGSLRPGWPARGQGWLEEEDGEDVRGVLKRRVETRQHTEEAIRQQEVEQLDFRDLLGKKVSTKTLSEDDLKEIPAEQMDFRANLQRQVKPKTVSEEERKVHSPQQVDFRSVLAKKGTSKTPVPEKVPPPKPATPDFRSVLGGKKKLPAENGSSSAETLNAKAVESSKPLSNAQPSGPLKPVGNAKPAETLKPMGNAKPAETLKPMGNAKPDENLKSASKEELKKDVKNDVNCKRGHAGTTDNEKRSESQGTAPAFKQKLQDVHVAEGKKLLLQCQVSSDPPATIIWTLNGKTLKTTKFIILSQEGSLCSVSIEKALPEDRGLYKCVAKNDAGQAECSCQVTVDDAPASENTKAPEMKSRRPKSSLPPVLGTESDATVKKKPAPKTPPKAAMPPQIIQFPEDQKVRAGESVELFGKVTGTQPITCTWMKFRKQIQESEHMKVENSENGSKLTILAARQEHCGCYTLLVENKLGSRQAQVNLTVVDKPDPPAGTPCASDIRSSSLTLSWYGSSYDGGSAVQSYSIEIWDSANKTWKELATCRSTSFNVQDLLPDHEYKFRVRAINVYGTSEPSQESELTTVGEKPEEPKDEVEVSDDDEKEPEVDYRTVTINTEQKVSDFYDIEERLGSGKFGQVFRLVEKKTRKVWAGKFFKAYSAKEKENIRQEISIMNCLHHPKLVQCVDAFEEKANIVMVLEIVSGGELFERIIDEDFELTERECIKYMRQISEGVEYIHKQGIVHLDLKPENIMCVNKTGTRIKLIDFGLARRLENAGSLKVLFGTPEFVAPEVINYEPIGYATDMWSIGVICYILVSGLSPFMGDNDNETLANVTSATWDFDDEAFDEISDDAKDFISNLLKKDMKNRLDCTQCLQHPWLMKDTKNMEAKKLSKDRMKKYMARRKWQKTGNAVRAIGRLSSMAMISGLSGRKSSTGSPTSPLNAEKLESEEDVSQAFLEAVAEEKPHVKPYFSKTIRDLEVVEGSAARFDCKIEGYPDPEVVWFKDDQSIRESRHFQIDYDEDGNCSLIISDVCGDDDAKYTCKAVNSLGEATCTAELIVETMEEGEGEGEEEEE

SMILES: Cc1cc([C@@H](C)Nc2ccccc2C(=O)O)c2nc(N3CCOCC3)cc(=O)n2c1 [AZD-6482]
- % of control [1]: 90%

SMILES: COc1cc(Nc2nc(C)cc(-c3cnn4nc(OC)ccc34)n2)cc(C(F)(F)F)c1
- % of control [2]: 100%

SMILES: Cc1cc(C)cc([C@@H]2c3cc(C)ccc3NC(=O)CN2C(=O)c2ccc(Br)s2)c1
- % of activity ([3]; at 1 µM): 103%
- % of activity ([3]; at 10 µM): 98.3%

SMILES: COCC(=O)NC/C=C/c1ccc2ncnc(Nc3ccc(Oc4ccc(C)nc4)c(C)c3)c2c1 [CP-724714]
- IC50 [4]: > 10000 nM
- % of control [5]: 93%

- % of control [6]: 36%
SMILES: C=CC(=O)Nc1cccc(C(=O)Nc2ccc(Nc3cc(-c4[nH]c(SC)nc4C)ccn3)cc2)c1

- IC50 [7]: 531 nM
SMILES: CN(C)C(=O)Cn1cc(-c2ccc(-c3cncc4ccccc34)cc2)cn1

SMILES: C=CC(=O)Nc1ccc(C(=O)Nc2[nH]nc3c2CN(C(=O)N[C@H](CN(C)C)c2ccccc2)C3(C)C)cc1
- % of engagement [8]: 5.2%

SMILES: COc1cc(C(=O)N2CC[C@@H](O)[C@@H](N)C2)cc2nc(-c3cc4ccccc4n3CC3CC3)n(C)c12
- pXC50 [9]: 4.9 M
